Laboratory results reported in ChEMBL document CHEMBL5346904 (Eur J Med Chem, 2023).
Values after ≈ are worked out from the molar mass of the structure shown. Active and inactive are the calls of the source. The rule behind the calls is not given here.

Tests used:
[1] = tested on: Pseudomonas aeruginosa; experiment: Antimicrobial activity against Pseudomonas aeruginosa ATCC 27853 assessed as inhibition of bacterial growth incubated for 48 hrs by CLSI based broth microdilution method; type: functional
[2] = Selectivity index, ratio of EC50 for hemolytic activity in human RBC assessed as hemolysis to MIC for antimicrobial activity against Pseudomonas aeruginosa ATCC 27853 assessed as inhibition of bacterial growth; type: toxicity; details: human red blood cells (erythrocytes), read-out: Selectivity Index
[3] = Selectivity index, ratio of EC50 for hemolytic activity in human RBC assessed as hemolysis to MIC for antimicrobial activity against Bacillus subtilis 168 assessed as inhibition of bacterial growth; type: toxicity; details: human red blood cells (erythrocytes), read-out: Selectivity Index
[4] = tested on: Staphylococcus aureus; experiment: Antimicrobial activity against Staphylococcus aureus ATCC 9144 assessed as inhibition of bacterial growth incubated for 48 hrs by CLSI based broth microdilution method; type: functional
[5] = Selectivity index, ratio of EC50 for hemolytic activity in human RBC assessed as hemolysis to MIC for antimicrobial activity against Staphylococcus aureus ATCC 9144 assessed as inhibition of bacterial growth; type: toxicity; details: human red blood cells (erythrocytes), read-out: Selectivity Index
[6] = Selectivity index, ratio of EC50 for hemolytic activity in human RBC assessed as hemolysis to MIC for antimicrobial activity against Escherichia coli ATCC 25922 assessed as inhibition of bacterial growth; type: toxicity; details: human red blood cells (erythrocytes), read-out: Selectivity Index
[7] = Hemolytic activity in human RBC assessed as hemolysis incubated for 1 hr by absorbance based microplate reader analysis; type: toxicity, cell-based, Erythrocyte; details: human red blood cells (erythrocytes)
[8] = tested on: Bacillus subtilis; experiment: Antimicrobial activity against Bacillus subtilis 168 assessed as inhibition of bacterial growth incubated for 48 hrs by CLSI based broth microdilution method; type: functional
[9] = tested on: Escherichia coli; experiment: Antimicrobial activity against Escherichia coli ATCC 25922 assessed as inhibition of bacterial growth incubated for 48 hrs by CLSI based broth microdilution method; type: functional
[10] = tested on: Cell membrane; experiment: Disruption of inner membrane integrity in Escherichia coli K12 at 51.2 microg/ml measured for 3 mins by luciferase based bioluminescence assay; type: subcellular; details: dose 51.2 µg/ml
[11] = tested on: Escherichia coli; experiment: Antibacterial activity against Escherichia coli K12 assessed as reduction in bacterial viability measured for 3 min; type: functional, organism-based; details: dose 1.6-51.2 µg/ml
[12] = tested on: Cell membrane; experiment: Disruption of membrane integrity in Bacillus subtilis 168 at 25.6 microg/ml measured for 180 sec by luciferase based bioluminescence assay; type: subcellular; details: dose 25.6 µg/ml
[13] = tested on: Cell membrane; experiment: Disruption of inner membrane integrity in Escherichia coli K12 at 51.2 microg/ml measured for 180 sec by luciferase based bioluminescence assay; type: subcellular; details: dose 51.2 µg/ml
[14] = tested on: Cell membrane; experiment: Disruption of outer membrane integrity in Escherichia coli K12 assessed as increase in fluorescence intensity at 51.2 microg/ml measured for 3 mins by NPN uptake assay; type: subcellular; details: dose 51.2 µg/ml
[15] = tested on: Cell membrane; experiment: Disruption of membrane integrity in Bacillus subtilis 168 at 25.6 to 51.2 microg/ml measured for 180 sec by luciferase based bioluminescence assay; details: dose 25.6-51.2 µg/ml
[16] = tested on: Bacillus subtilis; experiment: Antibacterial activity against Bacillus subtilis 168 assessed as reduction in bacterial viability at 1.6 to 51.2 microg/ml measured after 3 min; type: functional, organism-based; details: dose 1.6-51.2 µg/ml
[17] = tested on: Cell membrane; experiment: Disruption of membrane integrity in Bacillus subtilis 168 measured for 180 sec by luciferase based bioluminescence assay; type: subcellular; details: dose 1.6-51.2 µg/ml
[18] = tested on: Cell membrane; experiment: Induction of outer membrane permeabilization in Escherichia coli K12 assessed as increase in fluorescence intensity at 1.6 to 51.2 microg/ml measured for […] by NPN uptake assay; type: subcellular; details: dose 1.6-51.2 µg/ml
[19] = tested on: Escherichia coli; experiment: Antibacterial activity against Escherichia coli K12 assessed as reduction in bacterial viability at 51.2 microg/ml measured for 3 min; type: functional, organism-based; details: dose 51.2 µg/ml
[20] = tested on: Escherichia coli; experiment: Antibacterial activity against Escherichia coli K12 assessed as reduction in bacterial viability at 1.6 to 51.2 microg/ml measured for 3 min; type: functional, organism-based; details: dose 1.6-51.2 µg/ml
[21] = tested on: Cell membrane; experiment: Disruption of inner membrane integrity in Escherichia coli K12 at 1.6 to 25.6 microg/ml measured for 3 mins by luciferase based bioluminescence assay; type: subcellular; details: dose 1.6-25.6 µg/ml
[22] = tested on: Escherichia coli; experiment: Antimicrobial activity against Escherichia coli K12 assessed as inhibition of bacterial growth incubated for 48 hrs by CLSI based broth microdilution method; type: functional

Compound | MIC [1] [µg/mL] | selectivity ratio [3] | MIC [4] [µg/mL] | selectivity ratio [5] | EC50 at 1 h [7] [µg/mL] | MIC [8] [µg/mL] | MIC [9] [µg/mL] | further results
NCCCN1C(=O)N(CCCN)C(Cc2cc(C(F)(F)F)cc(C(F)(F)F)c2)(Cc2cc(C(F)(F)F)cc(C(F)(F)F)c2)C1=O.O=C(O)C(F)(F)F.O=C(O)C(F)(F)F | 16 | 50 | 16 | 25 | 399 | 8 | 16 | selectivity ratio [2]: 25; selectivity ratio [6]: 25
NCCCN1C(=O)N(CCCN)C(Cc2ccc(Br)c(Cl)c2)(Cc2ccc(Br)c(Cl)c2)C1=O.O=C(O)C(F)(F)F.O=C(O)C(F)(F)F | 32 |  | 8 |  | 368 | 4 | 32 | 
NCCCN1C(=O)N(CCCN)C(Cc2ccc(Br)c3ccccc23)(Cc2ccc(Br)c3ccccc23)C1=O.O=C(O)C(F)(F)F.O=C(O)C(F)(F)F | 8 |  | 4 |  | 69 | 4 | 8 | 
NCCCN1C(=O)N(CCCN)C(Cc2cc(Br)cc(Br)c2)(Cc2cc(Br)cc(Br)c2)C1=O.O=C(O)C(F)(F)F.O=C(O)C(F)(F)F | 8 | 86 | 8 | 43 | 344 | 4 | 16 | selectivity ratio [2]: 43; selectivity ratio [6]: 22
NCCCN1C(=O)N(CCCN)C(=O)C(Cc2cc(Br)cc(Br)c2)(Cc2cc(Br)cc(Br)c2)C1=O.O=C(O)C(F)(F)F.O=C(O)C(F)(F)F | 8 |  | 4 |  |  | 4 | 8 | 
N=C(N)NCCCN1C(=O)N(CCCNC(=N)N)C(Cc2ccc(C(F)(F)F)cc2)(Cc2ccc(C(F)(F)F)cc2)C1=O.O=C(O)C(F)(F)F.O=C(O)C(F)(F)F | > 256 |  | 16 |  | > 421 | 8 | 128 | 
NCCCN1C(=S)N(CCCN)C(Cc2cc(Br)cc(Br)c2)(Cc2cc(Br)cc(Br)c2)C1=S.O=C(O)C(F)(F)F.O=C(O)C(F)(F)F | 32 |  | 8 |  | 385 | 8 | 16 | 
N=C(N)NCCCCN1C(=O)N(CCCCNC(=N)N)C(Cc2ccc(Br)c(Cl)c2)(Cc2ccc(Br)c(Cl)c2)C1=O.O=C(O)C(F)(F)F.O=C(O)C(F)(F)F | 32 | 347 | 1 | 347 | 347 | 1 | 8 | Activity [10]: Active; Activity [11]: Dose-Dependent Effect; Activity [12]: Active; Activity [13]: inactive; Activity [14]: Active; Activity [15]: Active; Activity [16]: Active; Activity [17]: Dose-Dependent Effect; selectivity ratio [6]: 43; Activity [18]: Active; Activity [19]: Active; Activity [20]: inactive; Activity [21]: inactive
NCCCCN1C(=O)N(CCCCN)C(Cc2ccc(C(F)(F)F)cc2)(Cc2ccc(C(F)(F)F)cc2)C1=O.O=C(O)C(F)(F)F.O=C(O)C(F)(F)F | > 128 |  | 64 |  | > 393 | 16 | > 128 | 
N=C(N)NCCCCN1C(=O)N(CCCCNC(=N)N)C(Cc2ccc(C(F)(F)F)cc2)(Cc2ccc(C(F)(F)F)cc2)C1=O.O=C(O)C(F)(F)F.O=C(O)C(F)(F)F | > 128 |  | 4 |  | > 503 | 4 | 64 | 
NCCCn1c(Cc2cc(Br)cc(Br)c2)c(Cc2cc(Br)cc(Br)c2)n(CCCN)c1=O.O=C(O)C(F)(F)F.O=C(O)C(F)(F)F | 8 |  | 2 |  | 52 | 1 | 4 | 
N=C(N)NCCCN1C(=O)N(CCCNC(=N)N)C(Cc2cc(Br)cc(Br)c2)(Cc2cc(Br)cc(Br)c2)C1=O.O=C(O)C(F)(F)F.O=C(O)C(F)(F)F | 32 | 122 | 2 | 243 | 486 | 4 | 16 | selectivity ratio [6]: 30
NCCCCN1C(=O)N(CCCCN)C(Cc2ccc(Br)c(Cl)c2)(Cc2ccc(Br)c(Cl)c2)C1=O.O=C(O)C(F)(F)F.O=C(O)C(F)(F)F | 64 | > 110 | 8 | > 55 | > 439 | 4 | 64 | 
N=C(N)NCCCN1C(=O)N(CCCNC(=N)N)C(Cc2ccccc2)(Cc2ccccc2)C1=O.O=C(O)C(F)(F)F.O=C(O)C(F)(F)F | > 256 |  | 64 |  | > 353 | 128 | > 256 | 
NCCCCN1C(=O)N(CCCCN)C(Cc2cc(Br)cc(Br)c2)(Cc2cc(Br)cc(Br)c2)C1=O.O=C(O)C(F)(F)F.O=C(O)C(F)(F)F | 32 |  | 8 |  | 364 | 2 | 32 | 
N=C(N)NCCCN1C(=O)N(CCCNC(=N)N)C(Cc2ccc(Br)c3ccccc23)(Cc2ccc(Br)c3ccccc23)C1=O.O=C(O)C(F)(F)F.O=C(O)C(F)(F)F | 32 | 103 | 2 | 103 | 206 | 2 | 8 | selectivity ratio [6]: 26
NCCCCN1C(=O)N(CCCCN)C(Cc2cc(C(F)(F)F)cc(C(F)(F)F)c2)(Cc2cc(C(F)(F)F)cc(C(F)(F)F)c2)C1=O.O=C(O)C(F)(F)F.O=C(O)C(F)(F)F | 64 |  | 16 |  | > 461 | 4 | 64 | 
N=C(N)NCCCN1C(=O)N(CCCNC(=N)N)C(Cc2cc(C(F)(F)F)cc(C(F)(F)F)c2)(Cc2cc(C(F)(F)F)cc(C(F)(F)F)c2)C1=O | 32 (≈ 42.6 µM) | > 245 | 4 (≈ 5.33 µM) | > 122 | > 489 | 2 (≈ 2.66 µM) | 32 (≈ 42.6 µM) | 
N=C(N)NCCCN1C(=O)N(CCCNC(=N)N)C(Cc2ccc(Br)c(Cl)c2)(Cc2ccc(Br)c(Cl)c2)C1=O | 64 (≈ 90.7 µM) | > 234 | 2 (≈ 2.84 µM) | > 234 | > 467 | 2 (≈ 2.84 µM) | 32 (≈ 45.4 µM) | 
N=C(N)NCCCCN1C(=O)N(CCCCNC(=N)N)C(Cc2cc(C(F)(F)F)cc(C(F)(F)F)c2)(Cc2cc(C(F)(F)F)cc(C(F)(F)F)c2)C1=O.O=C(O)C(F)(F)F.O=C(O)C(F)(F)F | 32 | 192 | 2 | 192 | 384 | 2 | 8 | selectivity ratio [6]: 48
N=C(N)NCCCCN1C(=O)N(CCCCNC(=N)N)C(Cc2cc(Br)cc(Br)c2)(Cc2cc(Br)cc(Br)c2)C1=O.O=C(O)C(F)(F)F.O=C(O)C(F)(F)F | 16 | 206 | 1 | 206 | 206 | 1 | 4 | selectivity ratio [2]: 13; selectivity ratio [6]: 52
NCCCN1C(=O)N(CCCN)C(Cc2ccccc2)(Cc2ccccc2)C1=O.O=C(O)C(F)(F)F.O=C(O)C(F)(F)F | > 256 |  | > 256 |  | > 311 | 256 | > 256 | 
NCCCOc1nc(Cc2cc(Br)cc(Br)c2)c(Cc2cc(Br)cc(Br)c2)n1CCCN.O=C(O)C(F)(F)F.O=C(O)C(F)(F)F | 4 |  | 2 |  | 44 | 2 | 4 | 
NCCCN1C(=O)N(CCCN)C(Cc2ccc(C(F)(F)F)cc2)(Cc2ccc(C(F)(F)F)cc2)C1=O.O=C(O)C(F)(F)F.O=C(O)C(F)(F)F | > 256 |  | 64 |  | > 379 | 16 | 256 | 
N=C(NCCCCCCNC(=N)NC(=N)Nc1ccc(Cl)cc1)NC(=N)Nc1ccc(Cl)cc1 [CHLORHEXIDINE] |  |  |  |  |  | 1.5 (≈ 2.97 µM) |  | MIC [22]: 1.5 µg/mL (≈ 2.97 µM)
